Laboratory results reported in ChEMBL document CHEMBL4665770, “Design and Discovery of Natural Cyclopeptide Skeleton Based Programmed Death Ligand 1 Inhibitor as Immune Modulator for Cancer Therapy” (J Med Chem, 2020).

Experiments:
[1] = target: Programmed cell death protein 1/Programmed cell death 1 ligand 1 (Homo sapiens, UniProt Q9NZQ7); test: Inhibition of PD1-Tag2/PD-L1-Tag1 (unknown origin) protein-protein interaction preincubated for 15 mins followed by addition of anti-Tag1-Eu3+ and anti-Tag2-XL665 measured after 3 hrs by HTRF assay; format: protein-complex assay
[2] = target: Programmed cell death protein 1/Programmed cell death 1 ligand 1 (Homo sapiens) (UniProt Q15116+Q9NZQ7); test: Inhibition of PD1-Tag2/PD-L1-Tag1 (unknown origin) protein-protein interaction at 20 uM preincubated for 15 mins followed by addition of anti-Tag1-Eu3+ and anti-Tag2-XL665 measured after 3 hrs by HTRF assay relative to control; format: protein-complex assay; conditions: time 195.0 min

Programmed cell death protein 1/Programmed cell death 1 ligand 1, sequence (Q15116 whole entry): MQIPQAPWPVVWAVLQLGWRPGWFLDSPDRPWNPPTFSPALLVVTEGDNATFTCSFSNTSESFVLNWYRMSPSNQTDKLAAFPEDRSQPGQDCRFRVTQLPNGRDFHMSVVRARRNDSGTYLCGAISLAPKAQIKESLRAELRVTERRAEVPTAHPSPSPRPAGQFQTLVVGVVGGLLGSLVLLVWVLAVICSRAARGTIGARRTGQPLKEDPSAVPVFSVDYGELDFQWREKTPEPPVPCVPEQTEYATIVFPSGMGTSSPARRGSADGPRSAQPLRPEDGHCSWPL
Programmed cell death protein 1/Programmed cell death 1 ligand 1, sequence (Q9NZQ7 whole entry): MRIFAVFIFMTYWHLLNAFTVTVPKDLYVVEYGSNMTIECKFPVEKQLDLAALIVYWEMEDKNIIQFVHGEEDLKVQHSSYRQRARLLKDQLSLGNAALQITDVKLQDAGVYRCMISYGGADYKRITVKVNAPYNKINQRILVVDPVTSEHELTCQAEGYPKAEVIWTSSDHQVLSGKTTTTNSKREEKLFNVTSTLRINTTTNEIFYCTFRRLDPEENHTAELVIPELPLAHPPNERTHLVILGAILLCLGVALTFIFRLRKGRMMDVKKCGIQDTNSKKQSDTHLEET

| SMILES | IC50 [1] | inhibition [2] |
| --- | --- | --- |
| CC(C)C[C@@H]1NC(=O)[C@H](CC(=O)O)NC(=O)[C@H](C(C)C)NC(=O)[C@@H]2CCCN2C(=O)[C@@H](Cc2c[nH]c3ccccc23)NC(=O)[C@H](CC(C)C)NC(=O)[C@H](CCCNC(=N)N)NC(=O)[C@H](C(C)C)NC(=O)[C@@H]2CCCN2C(=O)[C@@H](Cc2ccccc2)NC1=O | 7.42 µM | 66.8% |
| CC[C@H](C)[C@@H]1NC(=O)[C@H](CC(=O)O)NC(=O)[C@H]([C@@H](C)O)NC(=O)[C@@H]2CCCN2C(=O)[C@@H](Cc2c[nH]c3ccccc23)NC(=O)[C@H](CC(C)C)NC(=O)[C@H](CCCNC(=N)N)NC(=O)[C@H]([C@@H](C)CC)NC(=O)[C@@H]2CCCN2C(=O)[C@@H](Cc2ccccc2)NC1=O | 5.37 µM | 80.4% |
| CC(C)C[C@@H]1NC(=O)[C@H](CC(=O)O)NC(=O)[C@H]([C@@H](C)O)NC(=O)[C@@H]2CCCN2C(=O)[C@@H](Cc2ccccc2)NC(=O)[C@H](CC(C)C)NC(=O)[C@H](CCCNC(=N)N)NC(=O)[C@H](C(C)C)NC(=O)[C@@H]2CCCN2C(=O)[C@@H](Cc2ccccc2)NC1=O | 6.35 µM | 72.4% |
| CC(C)C[C@@H]1NC(=O)[C@H](CCCNC(=N)N)NC(=O)[C@H](C(C)C)NC(=O)[C@@H]2CCCN2C(=O)[C@@H](Cc2ccccc2)NC(=O)[C@H](C)NC(=O)[C@H](CC(=O)O)NC(=O)[C@H](C)NC(=O)[C@@H]2CCCN2C(=O)[C@@H](Cc2ccccc2)NC1=O | 27.5 µM | 51.9% |
| CC(C)C[C@@H]1NC(=O)[C@H](CCCNC(=N)N)NC(=O)[C@H](C(C)C)NC(=O)[C@@H]2CCCN2C(=O)[C@@H](Cc2ccccc2)NC(=O)[C@H](CC(C)C)NC(=O)[C@H](CC(=O)O)NC(=O)[C@H](C)NC(=O)[C@@H]2CCCN2C(=O)[C@@H](Cc2ccccc2)NC1=O | 8.1 µM | 66.4% |
| CCCC[C@@H]1NC(=O)[C@H](CC(=O)O)NC(=O)[C@H]([C@@H](C)O)NC(=O)[C@@H]2CCCN2C(=O)[C@@H](Cc2c[nH]c3ccccc23)NC(=O)[C@H](CC(C)C)NC(=O)[C@H](CCCNC(=N)N)NC(=O)[C@H](C(C)C)NC(=O)[C@@H]2CCCN2C(=O)[C@@H](Cc2ccccc2)NC1=O | 5.02 µM | 82.1% |
| CC(C)C[C@@H]1NC(=O)[C@H](CC(=O)O)NC(=O)[C@H](C(C)C)NC(=O)[C@@H]2CCCN2C(=O)[C@@H](Cc2ccccc2)NC(=O)[C@H](CC(C)C)NC(=O)[C@H](CCCNC(=N)N)NC(=O)[C@H](C(C)C)NC(=O)[C@@H]2CCCN2C(=O)[C@@H](Cc2ccccc2)NC1=O | 9.63 µM | 57.3% |
